Values of other authors as cited in patent US20060069075A1, “Methods for treating dry eye” (priority 2001, published 2006).

System: human conjunctival epithelial cells
Conditions: background statement, no data given

Structure (SMILES): CCCCC[C@H](O)/C=C/C=C\C/C=C\C/C=C\CCCC(=O)O [15-HETE]
- secretion of mucin-1 (MUC-1): increase the secretion of mucin-1 (MUC-1)
